Laboratory results as given in ChEMBL document CHEMBL1201862, “PubChem BioAssay data set” (2004).
Each block holds one compound with its values, some of them ahead of it. Calls of active or inactive are those of the source.

What was measured:
[1] = target: Multidrug resistance protein CDR2 (Candida albicans (strain SC5314 / ATCC MYA-2876) (Yeast), UniProt P78595); test: CaCDR2 efflux pump inhibitors in yeast, dose response, S. cerevisiae AD1-8u, singleplex, Cherry Pick1 hits (AID 588604); format: functional
[2] = target: T1, Aspartyl aminopeptidase (Plasmodium falciparum 3D7, UniProt Q8I2J3); test: Counterscreen for inhibitors of M1 and M17 aminopeptidases: QFRET-based biochemical high throughput dose response assay for inhibitors of the Plasmodium falciparum M18 Aspartyl Aminopeptidase (PFM18AAP). [Related PubChem assays: 1619 (Screening assay (M17LAP inhibitors).), 1445 (Screening assay (M1AAP inhibitors).)]
T1 sequence (Q8I2J3 whole entry): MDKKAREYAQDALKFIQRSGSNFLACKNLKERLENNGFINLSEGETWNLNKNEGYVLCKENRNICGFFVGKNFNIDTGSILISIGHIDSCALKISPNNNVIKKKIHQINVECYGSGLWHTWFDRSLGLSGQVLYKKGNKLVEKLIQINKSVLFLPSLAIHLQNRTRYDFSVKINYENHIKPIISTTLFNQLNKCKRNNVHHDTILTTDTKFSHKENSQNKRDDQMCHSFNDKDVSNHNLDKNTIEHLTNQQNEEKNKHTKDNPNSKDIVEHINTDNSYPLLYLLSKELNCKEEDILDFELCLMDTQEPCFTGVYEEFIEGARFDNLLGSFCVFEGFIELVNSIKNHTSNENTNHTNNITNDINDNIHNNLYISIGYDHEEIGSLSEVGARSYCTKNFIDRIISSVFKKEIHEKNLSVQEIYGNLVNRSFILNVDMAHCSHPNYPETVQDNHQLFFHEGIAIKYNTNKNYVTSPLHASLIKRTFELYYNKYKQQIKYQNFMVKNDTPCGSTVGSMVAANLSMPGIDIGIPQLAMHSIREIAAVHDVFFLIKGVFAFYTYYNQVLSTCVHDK

[3] = target: Procathepsin L (Homo sapiens, UniProt P07711); test: cathepsin L inhibitors, dose response, counter-screen for M1/M17 aminopeptidase inhibitor project, biochemical, QFRET, 1536-well (AID 2214)
[4] = target: T2, Leucine aminopeptidase (Plasmodium falciparum 3D7, UniProt Q8IL11); test: P. falciparum M17LAP inhibitors, primary screen, biochemical, fluorogenic H-Leu-NHMec substrate, 1536-well (AID 1619); format: functional
T2 sequence (Q8IL11 whole entry): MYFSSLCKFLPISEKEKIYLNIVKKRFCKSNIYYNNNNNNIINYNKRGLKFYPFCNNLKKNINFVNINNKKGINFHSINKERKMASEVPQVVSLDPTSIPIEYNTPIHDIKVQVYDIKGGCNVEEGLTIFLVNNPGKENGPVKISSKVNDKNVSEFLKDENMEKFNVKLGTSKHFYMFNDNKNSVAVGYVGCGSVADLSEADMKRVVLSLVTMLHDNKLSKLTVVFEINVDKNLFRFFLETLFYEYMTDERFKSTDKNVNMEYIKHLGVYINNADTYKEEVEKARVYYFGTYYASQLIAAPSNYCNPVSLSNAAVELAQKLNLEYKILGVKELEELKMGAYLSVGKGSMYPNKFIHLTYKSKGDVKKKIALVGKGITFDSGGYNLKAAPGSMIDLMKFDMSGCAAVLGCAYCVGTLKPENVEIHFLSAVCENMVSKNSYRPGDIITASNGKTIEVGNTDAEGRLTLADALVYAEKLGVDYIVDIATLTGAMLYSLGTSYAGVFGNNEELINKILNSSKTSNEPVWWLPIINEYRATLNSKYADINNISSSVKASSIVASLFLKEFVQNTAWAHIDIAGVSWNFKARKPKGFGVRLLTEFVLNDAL

[5] = target: Serine/threonine-protein kinase PLK3 (Homo sapiens, UniProt Q9H4B4); format: functional
[6] = target: Homeodomain-interacting protein kinase 2 (Homo sapiens, UniProt Q9H2X6); format: functional;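 note: measured within a kinome-wide kinase profiling panel, HIPK2 being one panel member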
[7] = target: Calcium/calmodulin-dependent protein kinase type II subunit beta (Homo sapiens, UniProt Q13554); format: functional
[8] = target: Serine/threonine-protein kinase PLK1 (Homo sapiens, UniProt P53350); format: functional;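 note: PLK1 measured as one member of a kinome-wide profiling panel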
[9] = target: Tyrosine-protein kinase SYK (Homo sapiens, UniProt P43405); format: functional
[10] = target: Glycogen synthase kinase-3 beta (Homo sapiens, UniProt P49841); format: functional;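 note: value comes from a broad kinome profiling panel, with GSK3B as the panel member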
[11] = target: MAP/microtubule affinity-regulating kinase 3 (Homo sapiens, UniProt P27448); format: functional;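 note: MARK3 affinity measured as one member of a kinome panel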
[12] = target: Misshapen-like kinase 1 (Homo sapiens, UniProt Q8N4C8); format: functional;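 note: kinome panel screen with MINK as the panel member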
[13] = target: Serine/threonine-protein kinase TAO1 (Homo sapiens, UniProt Q7L7X3); format: functional
[14] = target: LIM domain kinase 1 (Homo sapiens, UniProt P53667); test: Navigating the Kinome. Panel member name: LIMK1; format: functional
[15] = target: Tyrosine-protein kinase Fyn (Homo sapiens, UniProt P06241); format: functional
[16] = target: Cyclin-dependent kinase 8 (Homo sapiens, UniProt P49336); test: Navigating the Kinome. Panel member name: CDK8; format: functional
[17] = target: Focal adhesion kinase 1 (Homo sapiens, UniProt Q05397); format: functional;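 note: measured as one member of a kinome panel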
[18] = target: Tyrosine-protein kinase BTK (Homo sapiens, UniProt Q06187); format: functional
[19] = target: Serine/threonine-protein kinase pim-1 (Homo sapiens, UniProt P11309); format: functional
[20] = target: Tyrosine-protein kinase Lck (Homo sapiens, UniProt P06239); format: functional;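 note: lck was assayed as one member of a kinase panel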
[21] = target: ALK tyrosine kinase receptor (Homo sapiens, UniProt Q9UM73); format: functional;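 note: ALK tested as one member of a kinase panel screen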
[22] = target: Glycogen synthase kinase-3 alpha (Homo sapiens, UniProt P49840); format: functional;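 note: GSK3A result taken from a broad kinome-wide kinase panel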
[23] = target: Mitogen-activated protein kinase 9 (Homo sapiens, UniProt P45984); format: functional;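 note: value from a kinome panel profiling assay, MAPK9 panel entry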
[24] = target: Casein kinase II subunit alpha (Homo sapiens, UniProt P68400); format: functional
[25] = target: Cyclin-dependent kinase 5 (Homo sapiens, UniProt Q00535); format: functional;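 note: CDK5 measured as one member of a kinase profiling panel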
[26] = target: Calcium/calmodulin-dependent protein kinase type II subunit delta (Homo sapiens, UniProt Q13557); format: functional
[27] = target: Serine/threonine-protein kinase pim-2 (Homo sapiens, UniProt Q9P1W9); format: functional;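 note: value comes from a broad kinase panel profiling study in which PIM2 was one of the panel members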
[28] = target: Mitogen-activated protein kinase 14 (Homo sapiens, UniProt Q16539); format: functional;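 note: part of a kinome-wide panel, MAPK14 entry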
[29] = target: Mitogen-activated protein kinase 13 (Homo sapiens, UniProt O15264); format: functional
[30] = target: Cyclin-dependent kinase 7 (Homo sapiens, UniProt P50613); format: functional;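 note: value comes from a kinome-wide kinase profiling panel in which CDK7 is one member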
[31] = target: Mitogen-activated protein kinase kinase kinase 20 (Homo sapiens, UniProt Q9NYL2); format: functional
[32] = target: Tyrosine-protein kinase Lyn (Homo sapiens, UniProt P07948); format: functional;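 note: lyn as one member of a kinase panel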
[33] = target: Cyclin-dependent kinase 2 (Homo sapiens, UniProt P24941); format: functional;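 note: CDK2 measured as one member of a broad kinome profiling panel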
[34] = target: Protein kinase C gamma type (Homo sapiens, UniProt P05129); format: functional
[35] = target: Serine/threonine-protein kinase MRCK alpha (Homo sapiens, UniProt Q5VT25); format: functional
[36] = target: cGMP-dependent protein kinase 1 (Homo sapiens, UniProt Q13976); format: functional;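 note: value from a kinome panel screen with PRKG1 as the panel member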
[37] = target: Vascular endothelial growth factor receptor 3 (Homo sapiens, UniProt P35916); format: functional;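 note: value from a kinome-wide profiling panel, with FLT4 as the panel member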
[38] = target: Wee1-like protein kinase (Homo sapiens, UniProt P30291); test: Navigating the Kinome. Panel member name: WEE1; format: functional
[39] = target: RAC-alpha serine/threonine-protein kinase (Homo sapiens, UniProt P31749); format: functional;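 note: AKT1 affinity measured as one member of a kinome-wide kinase profiling panel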
[40] = target: 5'-AMP-activated protein kinase catalytic subunit alpha-1 (Homo sapiens, UniProt Q13131); format: functional
[41] = target: RAC-gamma serine/threonine-protein kinase (Homo sapiens, UniProt Q9Y243); format: functional
[42] = target: Serine/threonine-protein kinase D3 (Homo sapiens, UniProt O94806); format: functional;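 note: determined within a kinase panel screen, with PRKCN as the panel member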
[43] = target: Testis-specific serine/threonine-protein kinase 2 (Homo sapiens, UniProt Q96PF2); format: functional;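 note: part of the Navigating the Kinome panel, target entry STK22B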
[44] = target: Casein kinase I isoform delta (Homo sapiens, UniProt P48730); format: functional;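 note: measured as one member (CSNK1D) of a kinome panel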
[45] = target: Cyclin-dependent kinase 9 (Homo sapiens, UniProt P50750); format: functional;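 note: value from the CDK9 entry of a kinome-spanning kinase panel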
[46] = target: MAP kinase-activated protein kinase 3 (Homo sapiens, UniProt Q16644); format: functional;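 note: value comes from a kinome-wide profiling panel in which MAPKAPK3 is one of the panel members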
[47] = target: Mitogen-activated protein kinase kinase kinase kinase 5 (Homo sapiens, UniProt Q9Y4K4); format: functional;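 note: measured as one member of a kinome-spanning kinase panel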
[48] = target: Lymphokine-activated killer T-cell-originated protein kinase (Homo sapiens, UniProt Q96KB5); format: functional;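 note: value comes from a kinase panel screen in which TOPK was one of the panel members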
[49] = target: Tyrosine-protein kinase Blk (Homo sapiens, UniProt P51451); format: functional;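 note: obtained as one member of a kinome-wide kinase assay panel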
[50] = target: Casein kinase I isoform gamma-1 (Homo sapiens, UniProt Q9HCP0); format: functional;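 note: measured as the CSNK1G1 member of a kinome profiling panel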
[51] = target: Receptor tyrosine-protein kinase erbB-4 (Homo sapiens, UniProt Q15303); format: functional;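 note: ERBB4 member of a kinome-wide kinase profiling panel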
[52] = target: cAMP-dependent protein kinase catalytic subunit PRKX (Homo sapiens, UniProt P51817); format: functional
[53] = target: Dual specificity tyrosine-phosphorylation-regulated kinase 4 (Homo sapiens, UniProt Q9NR20); format: functional
[54] = target: Macrophage-stimulating protein receptor (Homo sapiens, UniProt Q04912); test: Navigating the Kinome. Panel member name: MST1R; format: functional
[55] = target: Protein kinase C iota type (Homo sapiens, UniProt P41743); format: functional;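 note: measured within a kinome-wide kinase panel, PRKCI as panel member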
[56] = target: Cell division cycle 7-related protein kinase (Homo sapiens, UniProt O00311); format: functional;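 note: value obtained from a kinome-wide kinase panel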
[57] = target: Cyclin-dependent kinase 1 (Homo sapiens, UniProt P06493); format: functional;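 note: Kinome-wide panel profiling, with the target listed as panel member CDC2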
[58] = target: Dual specificity tyrosine-phosphorylation-regulated kinase 3 (Homo sapiens, UniProt O43781); format: functional;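 note: measured as one member of a broad kinase panel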

Chain of Misshapen-like kinase 1 (Q8N4C8 whole entry): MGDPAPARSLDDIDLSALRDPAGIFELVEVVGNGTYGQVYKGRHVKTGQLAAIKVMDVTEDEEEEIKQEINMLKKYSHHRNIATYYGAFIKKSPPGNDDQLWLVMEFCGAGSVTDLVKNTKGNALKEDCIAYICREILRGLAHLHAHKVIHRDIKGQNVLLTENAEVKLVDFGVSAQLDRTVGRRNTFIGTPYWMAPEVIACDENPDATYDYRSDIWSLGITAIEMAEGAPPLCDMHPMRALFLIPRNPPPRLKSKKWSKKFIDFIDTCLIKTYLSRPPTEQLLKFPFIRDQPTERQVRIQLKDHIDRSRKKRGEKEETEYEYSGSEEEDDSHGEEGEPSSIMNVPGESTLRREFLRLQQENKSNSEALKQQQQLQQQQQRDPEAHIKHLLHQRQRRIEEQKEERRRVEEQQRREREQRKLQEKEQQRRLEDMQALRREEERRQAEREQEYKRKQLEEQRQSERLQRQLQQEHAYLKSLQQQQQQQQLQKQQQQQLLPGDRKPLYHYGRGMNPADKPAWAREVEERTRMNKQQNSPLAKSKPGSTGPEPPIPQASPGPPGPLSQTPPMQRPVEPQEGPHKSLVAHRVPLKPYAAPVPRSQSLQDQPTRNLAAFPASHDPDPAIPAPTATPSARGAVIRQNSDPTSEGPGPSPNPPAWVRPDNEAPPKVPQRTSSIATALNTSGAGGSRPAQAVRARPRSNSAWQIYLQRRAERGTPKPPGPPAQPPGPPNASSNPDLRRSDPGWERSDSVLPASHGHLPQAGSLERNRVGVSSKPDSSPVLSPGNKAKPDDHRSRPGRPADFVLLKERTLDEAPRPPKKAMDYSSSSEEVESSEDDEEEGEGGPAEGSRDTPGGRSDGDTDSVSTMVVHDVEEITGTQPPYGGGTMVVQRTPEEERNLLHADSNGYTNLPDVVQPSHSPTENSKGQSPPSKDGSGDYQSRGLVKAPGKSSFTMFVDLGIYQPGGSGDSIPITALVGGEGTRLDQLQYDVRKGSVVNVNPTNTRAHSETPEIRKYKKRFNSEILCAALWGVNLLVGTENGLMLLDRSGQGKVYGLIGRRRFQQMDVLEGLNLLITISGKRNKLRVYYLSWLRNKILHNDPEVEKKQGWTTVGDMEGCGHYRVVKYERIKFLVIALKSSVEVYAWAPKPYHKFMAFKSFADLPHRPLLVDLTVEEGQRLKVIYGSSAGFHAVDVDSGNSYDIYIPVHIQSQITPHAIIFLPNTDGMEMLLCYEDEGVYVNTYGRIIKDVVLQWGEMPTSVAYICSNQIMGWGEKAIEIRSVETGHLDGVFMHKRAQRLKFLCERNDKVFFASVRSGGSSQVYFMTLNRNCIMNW
Chain of Serine/threonine-protein kinase pim-1 (P11309 whole entry): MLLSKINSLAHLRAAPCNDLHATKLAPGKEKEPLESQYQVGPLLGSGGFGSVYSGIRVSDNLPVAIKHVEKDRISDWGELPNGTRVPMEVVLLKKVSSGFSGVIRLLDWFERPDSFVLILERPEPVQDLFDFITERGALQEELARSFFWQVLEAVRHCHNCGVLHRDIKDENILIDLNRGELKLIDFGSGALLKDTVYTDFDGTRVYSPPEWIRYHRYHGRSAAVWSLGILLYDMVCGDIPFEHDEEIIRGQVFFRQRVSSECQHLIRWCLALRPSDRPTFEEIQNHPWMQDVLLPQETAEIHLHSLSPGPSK
Chain of Cyclin-dependent kinase 8 (P49336 whole entry): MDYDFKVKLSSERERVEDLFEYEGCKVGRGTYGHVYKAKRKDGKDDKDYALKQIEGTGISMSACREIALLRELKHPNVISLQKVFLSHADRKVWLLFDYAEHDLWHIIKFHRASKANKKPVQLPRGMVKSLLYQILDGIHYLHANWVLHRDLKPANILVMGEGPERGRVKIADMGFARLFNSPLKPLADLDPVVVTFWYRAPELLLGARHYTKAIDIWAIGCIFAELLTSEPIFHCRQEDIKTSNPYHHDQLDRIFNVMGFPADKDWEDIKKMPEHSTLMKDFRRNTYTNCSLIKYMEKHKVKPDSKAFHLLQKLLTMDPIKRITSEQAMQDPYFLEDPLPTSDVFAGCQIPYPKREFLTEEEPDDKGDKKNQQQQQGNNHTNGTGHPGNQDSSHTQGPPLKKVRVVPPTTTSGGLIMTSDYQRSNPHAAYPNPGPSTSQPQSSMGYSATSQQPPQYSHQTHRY
Chain of Mitogen-activated protein kinase 13 (O15264 whole entry): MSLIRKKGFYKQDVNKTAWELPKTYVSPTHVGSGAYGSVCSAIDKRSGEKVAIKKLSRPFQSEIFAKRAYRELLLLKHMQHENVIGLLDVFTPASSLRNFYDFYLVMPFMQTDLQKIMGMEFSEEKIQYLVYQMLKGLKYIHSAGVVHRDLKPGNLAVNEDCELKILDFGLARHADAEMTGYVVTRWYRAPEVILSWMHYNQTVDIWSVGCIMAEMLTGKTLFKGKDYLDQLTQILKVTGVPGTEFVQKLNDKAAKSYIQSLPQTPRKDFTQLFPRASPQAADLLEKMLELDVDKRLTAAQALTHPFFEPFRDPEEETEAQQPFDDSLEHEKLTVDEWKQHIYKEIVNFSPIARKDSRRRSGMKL
Chain of Serine/threonine-protein kinase PLK1 (P53350 whole entry): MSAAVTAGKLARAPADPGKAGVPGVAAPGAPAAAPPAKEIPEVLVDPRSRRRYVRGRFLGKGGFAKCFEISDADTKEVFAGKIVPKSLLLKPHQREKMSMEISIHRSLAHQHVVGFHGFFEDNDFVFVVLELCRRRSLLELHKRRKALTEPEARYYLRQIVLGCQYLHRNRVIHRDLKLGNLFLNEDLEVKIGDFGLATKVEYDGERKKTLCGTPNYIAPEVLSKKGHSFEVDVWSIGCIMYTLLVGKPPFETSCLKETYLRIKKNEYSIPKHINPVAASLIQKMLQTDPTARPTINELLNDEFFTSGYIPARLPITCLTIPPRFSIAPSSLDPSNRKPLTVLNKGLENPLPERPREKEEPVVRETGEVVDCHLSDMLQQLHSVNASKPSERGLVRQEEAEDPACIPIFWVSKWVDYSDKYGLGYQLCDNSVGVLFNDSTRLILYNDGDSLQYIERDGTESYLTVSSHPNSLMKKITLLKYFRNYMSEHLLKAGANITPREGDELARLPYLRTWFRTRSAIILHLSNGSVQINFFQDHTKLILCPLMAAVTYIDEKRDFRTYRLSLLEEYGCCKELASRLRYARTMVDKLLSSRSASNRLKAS
Chain of Macrophage-stimulating protein receptor (Q04912 25-304 limits assumed): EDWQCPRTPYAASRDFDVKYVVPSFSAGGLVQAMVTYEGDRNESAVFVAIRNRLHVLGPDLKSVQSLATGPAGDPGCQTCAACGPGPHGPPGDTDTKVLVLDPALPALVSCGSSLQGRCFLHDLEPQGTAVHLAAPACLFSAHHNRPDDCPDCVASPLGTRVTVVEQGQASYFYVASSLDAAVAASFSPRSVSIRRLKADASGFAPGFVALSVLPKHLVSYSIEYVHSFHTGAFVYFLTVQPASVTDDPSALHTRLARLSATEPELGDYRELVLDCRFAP
Chain of Macrophage-stimulating protein receptor (Q04912 310-1400 limits assumed): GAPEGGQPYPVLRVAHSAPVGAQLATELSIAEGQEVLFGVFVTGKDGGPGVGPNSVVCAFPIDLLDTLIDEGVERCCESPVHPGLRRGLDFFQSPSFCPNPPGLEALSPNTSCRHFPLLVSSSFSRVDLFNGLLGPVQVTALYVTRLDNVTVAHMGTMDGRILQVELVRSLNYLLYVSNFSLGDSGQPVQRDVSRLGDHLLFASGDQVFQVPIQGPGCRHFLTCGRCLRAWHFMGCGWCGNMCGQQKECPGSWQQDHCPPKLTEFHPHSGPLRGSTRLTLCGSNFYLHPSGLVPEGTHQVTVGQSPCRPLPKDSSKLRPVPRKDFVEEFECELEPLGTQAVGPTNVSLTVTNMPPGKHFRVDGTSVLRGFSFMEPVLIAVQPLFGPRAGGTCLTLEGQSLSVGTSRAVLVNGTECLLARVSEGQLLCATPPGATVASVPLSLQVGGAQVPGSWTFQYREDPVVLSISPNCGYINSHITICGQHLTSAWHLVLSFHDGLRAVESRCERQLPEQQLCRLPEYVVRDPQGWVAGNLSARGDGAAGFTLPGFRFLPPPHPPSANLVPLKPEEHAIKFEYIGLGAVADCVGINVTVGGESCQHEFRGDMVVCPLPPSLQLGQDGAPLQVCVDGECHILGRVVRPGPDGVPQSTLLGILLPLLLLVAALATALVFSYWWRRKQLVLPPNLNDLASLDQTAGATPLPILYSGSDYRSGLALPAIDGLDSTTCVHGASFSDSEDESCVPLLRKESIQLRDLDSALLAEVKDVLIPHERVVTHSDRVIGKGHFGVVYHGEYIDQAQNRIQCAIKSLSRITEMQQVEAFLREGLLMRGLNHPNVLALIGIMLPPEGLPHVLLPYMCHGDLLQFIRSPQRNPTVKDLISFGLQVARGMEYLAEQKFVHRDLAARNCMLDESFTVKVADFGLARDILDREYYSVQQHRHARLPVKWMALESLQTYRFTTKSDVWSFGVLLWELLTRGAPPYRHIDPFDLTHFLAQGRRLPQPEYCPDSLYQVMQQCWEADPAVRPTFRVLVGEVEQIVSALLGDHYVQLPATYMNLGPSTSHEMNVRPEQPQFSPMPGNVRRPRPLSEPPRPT
Chain of Tyrosine-protein kinase Lyn (P07948 whole entry): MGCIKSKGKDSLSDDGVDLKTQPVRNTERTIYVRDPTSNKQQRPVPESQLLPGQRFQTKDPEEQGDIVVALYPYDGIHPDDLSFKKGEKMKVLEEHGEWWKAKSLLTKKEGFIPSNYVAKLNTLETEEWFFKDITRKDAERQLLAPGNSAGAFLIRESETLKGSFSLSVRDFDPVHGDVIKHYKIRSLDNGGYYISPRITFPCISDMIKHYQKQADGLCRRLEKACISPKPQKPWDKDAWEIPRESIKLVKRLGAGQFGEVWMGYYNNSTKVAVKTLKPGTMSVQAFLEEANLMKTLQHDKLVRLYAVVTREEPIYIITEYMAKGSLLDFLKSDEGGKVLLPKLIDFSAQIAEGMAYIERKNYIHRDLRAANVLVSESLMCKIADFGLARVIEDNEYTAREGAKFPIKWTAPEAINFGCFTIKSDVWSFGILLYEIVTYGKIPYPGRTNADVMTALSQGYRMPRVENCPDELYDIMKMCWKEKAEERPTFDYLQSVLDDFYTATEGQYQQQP

SMILES: Cc1cc(C(=O)COC(=O)c2ccc[nH]c2=O)c(C)n1-c1ccc(F)cc1
EC50 [1]: 6.22 µM (active) | IC50 [2]: > 73.5 µM (not active) | IC50 [3]: > 59.6 µM (not active) | IC50 [4]: 1.98 µM (active)

Ki [5]: 3.16 µM (active) | Ki [6]: 3.16 µM (active) | Ki [7]: 6.31 µM (active) | Ki [8]: 2.51 µM (active) | Ki [9]: 1.26 µM (active) | Ki [10]: 3.98 µM (active) | Ki [11]: 3.98 µM (active) | Ki [12]: 6.31 µM (active)
SMILES: Cc1ccc(Nc2c(C(=O)O)n(CCCOc3cccc4ccccc34)c3cccc(-c4ccccc4C)c23)cc1

Ki [13]: > 6.31 µM (inactive) | Ki [14]: 501 nM (active) | Ki [15]: > 6.31 µM (inactive) | Ki [16]: 1.58 µM (active) | Ki [17]: > 6.31 µM (inactive) | Ki [18]: > 6.31 µM (inactive) | Ki [19]: > 6.31 µM (inactive) | Ki [20]: > 6.31 µM (inactive) | Ki [21]: > 6.31 µM (inactive)
SMILES: CC(C)(C)c1cc(NC(=O)C(=O)c2cccc3ccccc23)n(-c2ccc(OCC(=O)NCCO)cc2)n1

Ki [22]: > 3.16 µM (inactive) | Ki [23]: 398 nM (active) | Ki [24]: > 2.51 µM (inactive) | Ki [25]: 79.4 nM (active) | Ki [26]: 3.98 nM (active) | Ki [27]: > 1.58 µM (inactive) | Ki [28]: > 3.98 µM (inactive) | Ki [29]: > 7.94 µM (inactive) | Ki [30]: 79.4 nM (active) | Ki [31]: > 7.94 µM (inactive) | Ki [32]: 79.4 nM (active) | pKi [33]: 6.9 | Ki [34]: > 1 µM (inactive) | Ki [16]: > 3.98 µM (inactive) | Ki [35]: 3.98 µM (active) | Ki [36]: 1.58 µM (active) | Ki [37]: 7.94 nM (active) | Ki [38]: > 251 nM (inactive) | Ki [39]: > 7.94 µM (inactive) | Ki [40]: 10 nM (active) | Ki [41]: > 10 µM (inactive) | Ki [42]: 31.6 nM (active) | Ki [43]: 10 nM (active) | Ki [44]: > 7.94 µM (inactive) | Ki [45]: > 1.58 µM (inactive) | Ki [46]: > 10 µM (inactive) | Ki [47]: 79.4 nM (active) | Ki [19]: > 7.94 µM (inactive) | Ki [49]: 63.1 nM (active) | Ki [50]: > 6.31 µM (inactive) | Ki [51]: 20 nM (active) | Ki [52]: > 1 µM (inactive) | Ki [53]: > 7.94 µM (inactive) | Ki [54]: 126 nM (active) | Ki [55]: > 5.01 µM (inactive) | Ki [56]: > 1 µM (inactive) | Ki [57]: 316 nM (active) | Ki [58]: > 6.31 µM (inactive) | Ki [12]: 1 µM (active)
SMILES: COc1cc(N2CCC(N3CCN(C)CC3)CC2)ccc1Nc1ncc(Cl)c(Nc2ccccc2S(=O)(=O)C(C)C)n1 [TAE-684]
Ki [48]: > 10 µM (inactive)
